From ChEMBL document CHEMBL3885861, “Open TG-GATES”

Species on record: Rattus norvegicus
Test: Open TG-GATES - Regimen: Daily Repeat
Assay type: toxicity, organism-based, Sprague-Dawley
Design: regimen Daily Repeat, gender Male, age 6 weeks
Conditions: in vivo, po, 300 mg/kg, route gavage, dose level Middle; for APTT / Bas / Eos / Fbg / Hb / Ht / Lym / MCH / MCHC / MCV / Mono / Neu / PT / Plat / RBC / Ret / WBC: tissue Blood; for KIDNEY_L / KIDNEY_R / KIDNEY_TOTAL: tissue Kidney; for LIVER: tissue Liver; for A/G / ALP / ALT / AST / BUN / CRE / Ca / Cl / DBIL / GLC / IP / K / LDH / Na / PL / RALB / TBIL / TC / TG / TP / gamma-GTP: tissue Plasma

Which results are given for `CN(C)[C@@H]1C(O)=C(C(N)=O)C(=O)[C@@]2(O)C(O)=C3C(=O)c4c(O)cccc4[C@@](C)(O)[C@H]3C[C@@H]12` [TETRACYCLINE]?
TERMINAL_BW (72 h, time 3 day): 189.9 g; APTT (72 h, time 3 day): 16.3 s; Bas (72 h, time 3 day): 0%; Eos (72 h, time 3 day): 0.6%; Fbg (72 h, time 3 day): 239.2 mg/dL; Hb (72 h, time 3 day): 13.6 g/dL; Ht (72 h, time 3 day): 40.7%; Lym (72 h, time 3 day): 87.4%; MCH (72 h, time 3 day): 21.9 pg; MCHC (72 h, time 3 day): 33.4%; MCV (72 h, time 3 day): 65.7 fL; Mono (72 h, time 3 day): 5.6%; Neu (72 h, time 3 day): 6%; PT (72 h, time 3 day): 12.3 s; Plat (72 h, time 3 day): 99.5 x10_4/uL; RBC (72 h, time 3 day): 620.2 x10_4/ul; Ret (72 h, time 3 day): 5.8%; WBC (72 h, time 3 day): 89.4 x10_2/uL; KIDNEY_L (72 h, time 3 day): 0.9 g; KIDNEY_R (72 h, time 3 day): 0.9 g; KIDNEY_TOTAL (72 h, time 3 day): 1.8 g; LIVER (72 h, time 3 day): 8.8 g; A/G (72 h, time 3 day): 1.9; ALP (72 h, time 3 day): 1035.4 IU/L; ALT (72 h, time 3 day): 35.6 IU/L; AST (72 h, time 3 day): 66.8 IU/L; BUN (72 h, time 3 day): 16.2 mg/dL; CRE (72 h, time 3 day): 0.6 mg/dL; Ca (72 h, time 3 day): 10.9 mg/dL; Cl (72 h, time 3 day): 107.2 meq/L; DBIL (72 h, time 3 day): 0.01 mg/dL; GLC (72 h, time 3 day): 180.6 mg/dL; IP (72 h, time 3 day): 9.8 mg/dL; K (72 h, time 3 day): 4.8 meq/L; LDH (72 h, time 3 day): 122.6 IU/L; Na (72 h, time 3 day): 141 meq/L; PL (72 h, time 3 day): 147.2 mg/dL; RALB (72 h, time 3 day): 3.8 g/dL; TBIL (72 h, time 3 day): 0.3 mg/dL; TC (72 h, time 3 day): 93.6 mg/dL; TG (72 h, time 3 day): 42.6 mg/dL; TP (72 h, time 3 day): 5.8 g/dL; gamma-GTP (72 h, time 3 day): 1.6 IU/L; TERMINAL_BW ([…], time 7 day): 227.9 g; TERMINAL_BW ([…], time 14 day): 275.6 g; TERMINAL_BW ([…], time 28 day): 341 g; APTT ([…], time 7 day): 17.9 s; Bas ([…], time 7 day): 0%; Eos ([…], time 7 day): 1%; Fbg ([…], time 7 day): 238.5 mg/dL; Hb ([…], time 7 day): 13.9 g/dL; Ht ([…], time 7 day): 41.5%; Lym ([…], time 7 day): 85%; MCH ([…], time 7 day): 21 pg; MCHC ([…], time 7 day): 33.4%; MCV ([…], time 7 day): 62.9 fL; Mono ([…], time 7 day): 7%; Neu ([…], time 7 day): 7.2%; PT ([…], time 7 day): 12.1 s; Plat ([…], time 7 day): 102 x10_4/uL; RBC ([…], time 7 day): 660.2 x10_4/ul; Ret ([…], time 7 day): 7.2%; WBC ([…], time 7 day): 135.8 x10_2/uL; APTT ([…], time 14 day): 16.7 s; Bas ([…], time 14 day): 0%; Eos ([…], time 14 day): 0.6%; Fbg ([…], time 14 day): 224 mg/dL; Hb ([…], time 14 day): 14 g/dL; Ht ([…], time 14 day): 42.2%; Lym ([…], time 14 day): 88.8%; MCH ([…], time 14 day): 20.3 pg; MCHC ([…], time 14 day): 33.3%; MCV ([…], time 14 day): 60.8 fL; Mono ([…], time 14 day): 4.8%; Neu ([…], time 14 day): 5.8%; PT ([…], time 14 day): 11.9 s; Plat ([…], time 14 day): 101.9 x10_4/uL; RBC ([…], time 14 day): 694 x10_4/ul; Ret ([…], time 14 day): 5.3%; WBC ([…], time 14 day): 135.4 x10_2/uL; APTT ([…], time 28 day): 16.5 s; Bas ([…], time 28 day): 0%; Eos ([…], time 28 day): 1%; Fbg ([…], time 28 day): 222.6 mg/dL; Hb ([…], time 28 day): 14.6 g/dL; Ht ([…], time 28 day): 43.4%; Lym ([…], time 28 day): 89.4%; MCH ([…], time 28 day): 19 pg; MCHC ([…], time 28 day): 33.6%; MCV ([…], time 28 day): 56.6 fL; Mono ([…], time 28 day): 3%; Neu ([…], time 28 day): 7%; PT ([…], time 28 day): 11.8 s; Plat ([…], time 28 day): 94.9 x10_4/uL; RBC ([…], time 28 day): 766.8 x10_4/ul; Ret ([…], time 28 day): 2.7%; WBC ([…], time 28 day): 147 x10_2/uL; KIDNEY_L ([…], time 7 day): 1 g; KIDNEY_R ([…], time 7 day): 1 g; KIDNEY_TOTAL ([…], time 7 day): 2 g; KIDNEY_L ([…], time 14 day): 1.1 g; KIDNEY_R ([…], time 14 day): 1.1 g; KIDNEY_TOTAL ([…], time 14 day): 2.2 g; KIDNEY_L ([…], time 28 day): 1.3 g; KIDNEY_R ([…], time 28 day): 1.2 g; KIDNEY_TOTAL ([…], time 28 day): 2.5 g; LIVER ([…], time 7 day): 10.8 g; LIVER ([…], time 14 day): 11.8 g; LIVER ([…], time 28 day): 13.2 g; A/G ([…], time 7 day): 2; ALP ([…], time 7 day): 1076.4 IU/L; ALT ([…], time 7 day): 38.2 IU/L; AST ([…], time 7 day): 69 IU/L; BUN ([…], time 7 day): 20.2 mg/dL; CRE ([…], time 7 day): 0.6 mg/dL; Ca ([…], time 7 day): 11.2 mg/dL; Cl ([…], time 7 day): 106.6 meq/L; DBIL ([…], time 7 day): 0.004 mg/dL; GLC ([…], time 7 day): 176 mg/dL; IP ([…], time 7 day): 9.6 mg/dL; K ([…], time 7 day): 5.5 meq/L; LDH ([…], time 7 day): 142 IU/L; Na ([…], time 7 day): 140.4 meq/L; PL ([…], time 7 day): 157.6 mg/dL; RALB ([…], time 7 day): 3.9 g/dL; TBIL ([…], time 7 day): 0.3 mg/dL; TC ([…], time 7 day): 82.6 mg/dL; TG ([…], time 7 day): 87.6 mg/dL; TP ([…], time 7 day): 5.9 g/dL; gamma-GTP ([…], time 7 day): 1 IU/L; A/G ([…], time 14 day): 2; ALP ([…], time 14 day): 1009.2 IU/L; ALT ([…], time 14 day): 36.8 IU/L; AST ([…], time 14 day): 61.6 IU/L; BUN ([…], time 14 day): 20.8 mg/dL; CRE ([…], time 14 day): 0.5 mg/dL; Ca ([…], time 14 day): 11.1 mg/dL; Cl ([…], time 14 day): 103.8 meq/L; DBIL ([…], time 14 day): 0.006 mg/dL; GLC ([…], time 14 day): 178.2 mg/dL; IP ([…], time 14 day): 8.6 mg/dL; K ([…], time 14 day): 4.8 meq/L; LDH ([…], time 14 day): 88.6 IU/L; Na ([…], time 14 day): 142.4 meq/L; PL ([…], time 14 day): 157 mg/dL; RALB ([…], time 14 day): 3.9 g/dL; TBIL ([…], time 14 day): 0.3 mg/dL; TC ([…], time 14 day): 72.4 mg/dL; TG ([…], time 14 day): 111.4 mg/dL; TP ([…], time 14 day): 6 g/dL; gamma-GTP ([…], time 14 day): 1.2 IU/L; A/G ([…], time 28 day): 1.8; ALP ([…], time 28 day): 813.4 IU/L; ALT ([…], time 28 day): 29 IU/L; AST ([…], time 28 day): 62.4 IU/L; BUN ([…], time 28 day): 19.4 mg/dL; CRE ([…], time 28 day): 0.6 mg/dL; Ca ([…], time 28 day): 10.9 mg/dL; Cl ([…], time 28 day): 107 meq/L; DBIL ([…], time 28 day): 0.026 mg/dL; GLC ([…], time 28 day): 173.2 mg/dL; IP ([…], time 28 day): 7.4 mg/dL; K ([…], time 28 day): 4.2 meq/L; LDH ([…], time 28 day): 73.8 IU/L; Na ([…], time 28 day): 141 meq/L; PL ([…], time 28 day): 146 mg/dL; RALB ([…], time 28 day): 3.8 g/dL; TBIL ([…], time 28 day): 0.3 mg/dL; TC ([…], time 28 day): 75.2 mg/dL; TG ([…], time 28 day): 127 mg/dL; TP ([…], time 28 day): 6 g/dL; gamma-GTP ([…], time 28 day): 1 IU/L
